Results published in ChEMBL document CHEMBL5137051 (Eur J Med Chem, 2022).
Active and inactive are the calls of the source. The rule behind the calls is not given here.

Key:
NCI-H1975 [1] = test: Inhibition of cell migration of human H1975 cells at 0.1 to 1 uM after 24 hrs by scratch wound healing assay; type: functional, cell-based; settings: dose 0.1-1 µM
NCI-H1975 [2] = test: Induction of cell cycle arrest in human H1975 cells assessed as number of cells at G2/M phase at 1.3 uM after 24 hrs by flow cytometry (reference value: 31.41%); type: functional
NCI-H1975 [3] = test: Induction of cell cycle arrest in human H1975 cells assessed as number of cells at G2/M phase at 12 uM after 24 hrs by flow cytometry (reference value: 31.41%); type: functional
[4] = target: Epidermal growth factor receptor (Homo sapiens, UniProt P00533); test: Inhibition of wild type EGFR (unknown origin) by mobility shift assay
Chain of Epidermal growth factor receptor (Homo sapiens, UniProt P00533) (P00533 whole entry): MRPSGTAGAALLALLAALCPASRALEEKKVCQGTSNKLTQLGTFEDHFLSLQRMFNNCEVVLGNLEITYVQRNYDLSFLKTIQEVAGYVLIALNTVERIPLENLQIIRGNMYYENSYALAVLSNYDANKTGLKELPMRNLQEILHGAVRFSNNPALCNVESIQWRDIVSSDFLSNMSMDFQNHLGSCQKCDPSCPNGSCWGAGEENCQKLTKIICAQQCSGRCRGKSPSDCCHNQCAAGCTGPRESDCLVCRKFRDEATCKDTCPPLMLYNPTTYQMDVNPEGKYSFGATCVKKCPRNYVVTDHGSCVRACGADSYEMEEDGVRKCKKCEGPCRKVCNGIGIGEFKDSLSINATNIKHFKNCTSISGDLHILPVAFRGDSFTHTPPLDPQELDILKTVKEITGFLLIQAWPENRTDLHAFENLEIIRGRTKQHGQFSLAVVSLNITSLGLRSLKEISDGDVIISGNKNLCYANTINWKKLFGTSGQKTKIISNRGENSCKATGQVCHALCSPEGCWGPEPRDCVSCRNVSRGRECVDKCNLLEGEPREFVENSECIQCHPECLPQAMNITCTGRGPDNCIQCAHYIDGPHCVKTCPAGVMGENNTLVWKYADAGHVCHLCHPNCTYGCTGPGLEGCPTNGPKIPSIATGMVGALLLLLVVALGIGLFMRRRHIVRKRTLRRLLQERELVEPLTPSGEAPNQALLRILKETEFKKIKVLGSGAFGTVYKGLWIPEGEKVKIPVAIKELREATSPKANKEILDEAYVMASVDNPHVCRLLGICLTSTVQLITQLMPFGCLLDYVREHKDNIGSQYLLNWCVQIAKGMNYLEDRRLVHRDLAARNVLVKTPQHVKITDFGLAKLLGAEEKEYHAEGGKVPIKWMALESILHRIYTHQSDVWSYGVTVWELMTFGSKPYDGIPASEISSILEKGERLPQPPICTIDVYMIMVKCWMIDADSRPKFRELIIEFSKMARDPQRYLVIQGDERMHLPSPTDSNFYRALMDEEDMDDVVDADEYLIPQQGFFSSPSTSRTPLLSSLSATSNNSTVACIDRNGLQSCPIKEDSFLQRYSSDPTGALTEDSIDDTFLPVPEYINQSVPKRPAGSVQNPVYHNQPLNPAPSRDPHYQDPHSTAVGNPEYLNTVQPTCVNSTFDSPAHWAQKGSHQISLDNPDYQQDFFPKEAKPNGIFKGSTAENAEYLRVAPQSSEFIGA

NCI-H1975 [5] = test: Induction of cell cycle arrest in human H1975 cells assessed as number of cells at S phase at 1.3 uM after 24 hrs by flow cytometry (reference value: 25.41%); type: functional
NCI-H1975 [6] = test: Induction of apoptosis in human H1975 cells assessed as chromatin condensation after 48 hrs by AO/EB staining based fluorescent microscopic analysis; type: functional, cell-based; settings: dose 0.1-10 µM, DDE = dose-dependent effect
A549 [7] = test: Induction of apoptosis in human A549 cells assessed as cell shrinkage after 48 hrs by AO/EB staining based fluorescent microscopic analysis; type: functional; settings: dose 0.1-10 µM, DDE = dose-dependent effect
[8] = target: Epidermal growth factor receptor (Homo sapiens, UniProt P00533, C797S/L858R/T790M); test: Inhibition of EGFR L858R/T790M/C797S mutant (unknown origin) by mobility shift assay
Chain of Epidermal growth factor receptor (Homo sapiens, UniProt P00533, C797S/L858R/T790M) (P00533 25-1210 T790M/C797S/L858R limits assumed): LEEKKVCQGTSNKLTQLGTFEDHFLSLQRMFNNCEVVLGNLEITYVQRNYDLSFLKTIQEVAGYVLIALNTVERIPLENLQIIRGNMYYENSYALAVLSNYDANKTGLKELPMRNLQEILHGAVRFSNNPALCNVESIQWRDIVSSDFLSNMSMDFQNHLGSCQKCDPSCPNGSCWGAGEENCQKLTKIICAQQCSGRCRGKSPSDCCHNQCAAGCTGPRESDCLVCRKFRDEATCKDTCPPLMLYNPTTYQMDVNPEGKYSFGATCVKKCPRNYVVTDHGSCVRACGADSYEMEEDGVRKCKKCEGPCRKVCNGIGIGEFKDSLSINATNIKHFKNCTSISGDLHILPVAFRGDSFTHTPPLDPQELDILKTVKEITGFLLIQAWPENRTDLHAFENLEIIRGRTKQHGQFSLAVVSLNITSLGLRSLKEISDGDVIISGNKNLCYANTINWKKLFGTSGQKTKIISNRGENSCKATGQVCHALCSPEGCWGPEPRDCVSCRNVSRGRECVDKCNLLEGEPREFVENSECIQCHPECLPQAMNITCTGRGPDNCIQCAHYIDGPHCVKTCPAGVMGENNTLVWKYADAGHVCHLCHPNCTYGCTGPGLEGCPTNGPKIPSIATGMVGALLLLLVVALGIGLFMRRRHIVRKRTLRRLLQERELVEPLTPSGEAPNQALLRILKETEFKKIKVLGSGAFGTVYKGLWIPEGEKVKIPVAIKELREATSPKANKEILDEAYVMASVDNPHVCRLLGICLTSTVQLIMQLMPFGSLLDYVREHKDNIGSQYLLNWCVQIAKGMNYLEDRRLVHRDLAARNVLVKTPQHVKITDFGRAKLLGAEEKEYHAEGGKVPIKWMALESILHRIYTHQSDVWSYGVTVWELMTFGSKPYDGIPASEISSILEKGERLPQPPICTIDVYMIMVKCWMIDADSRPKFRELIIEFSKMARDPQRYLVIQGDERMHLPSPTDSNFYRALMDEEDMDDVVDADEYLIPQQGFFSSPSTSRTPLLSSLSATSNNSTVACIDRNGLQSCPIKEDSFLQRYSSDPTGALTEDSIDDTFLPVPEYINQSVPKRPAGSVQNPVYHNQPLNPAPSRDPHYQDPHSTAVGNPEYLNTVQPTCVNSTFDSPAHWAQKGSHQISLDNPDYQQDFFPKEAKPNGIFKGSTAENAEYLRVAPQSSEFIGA

[9] = target: Epidermal growth factor receptor (Homo sapiens, UniProt P00533, L858R/T790M); test: Inhibition of EGFR L858R/T790M mutant (unknown origin) by mobility shift assay
Chain of Epidermal growth factor receptor (Homo sapiens, UniProt P00533, L858R/T790M) (P00533 25-1210 T790M/L858R limits assumed): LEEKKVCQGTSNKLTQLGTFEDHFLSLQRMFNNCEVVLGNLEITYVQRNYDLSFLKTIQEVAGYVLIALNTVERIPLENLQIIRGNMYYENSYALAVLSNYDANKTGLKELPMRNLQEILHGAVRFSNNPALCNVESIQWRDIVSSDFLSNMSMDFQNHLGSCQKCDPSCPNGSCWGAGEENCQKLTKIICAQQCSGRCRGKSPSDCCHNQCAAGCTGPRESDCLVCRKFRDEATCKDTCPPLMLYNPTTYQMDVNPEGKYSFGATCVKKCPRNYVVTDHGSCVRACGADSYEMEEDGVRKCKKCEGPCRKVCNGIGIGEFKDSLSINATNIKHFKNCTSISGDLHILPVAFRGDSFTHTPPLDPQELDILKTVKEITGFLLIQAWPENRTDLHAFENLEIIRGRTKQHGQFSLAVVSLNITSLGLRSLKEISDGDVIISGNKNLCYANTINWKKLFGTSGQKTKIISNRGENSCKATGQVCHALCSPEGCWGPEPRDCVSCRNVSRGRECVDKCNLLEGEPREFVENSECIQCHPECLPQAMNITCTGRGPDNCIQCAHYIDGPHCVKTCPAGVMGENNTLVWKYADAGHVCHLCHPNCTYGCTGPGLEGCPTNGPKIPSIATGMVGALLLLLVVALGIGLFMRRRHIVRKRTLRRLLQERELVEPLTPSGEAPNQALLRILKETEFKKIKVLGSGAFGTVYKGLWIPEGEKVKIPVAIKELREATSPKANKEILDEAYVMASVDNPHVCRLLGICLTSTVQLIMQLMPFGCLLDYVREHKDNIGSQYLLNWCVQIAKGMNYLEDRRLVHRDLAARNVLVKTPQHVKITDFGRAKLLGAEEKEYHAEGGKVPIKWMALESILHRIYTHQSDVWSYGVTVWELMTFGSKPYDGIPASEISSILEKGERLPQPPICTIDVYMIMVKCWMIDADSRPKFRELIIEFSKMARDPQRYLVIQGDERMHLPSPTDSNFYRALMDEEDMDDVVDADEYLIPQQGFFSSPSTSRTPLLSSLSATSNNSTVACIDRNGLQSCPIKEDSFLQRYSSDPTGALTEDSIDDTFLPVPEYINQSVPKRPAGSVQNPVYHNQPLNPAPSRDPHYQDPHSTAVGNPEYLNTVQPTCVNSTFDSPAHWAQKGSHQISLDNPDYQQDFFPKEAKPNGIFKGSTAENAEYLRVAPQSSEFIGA

NCI-H1975 [10] = test: Induction of cell cycle arrest in human H1975 cells assessed as number of cells at G2/M phase at 4 uM after 24 hrs by flow cytometry (reference value: 31.41%); type: functional
A549 [11] = test: Antiproliferative activity against human A549 cells assessed as cell viability after 72 hrs by MTT assay; type: functional, cell-based; settings: A549, 72 h
NCI-H1975 [12] = test: Antiproliferative activity against human H1975 cells assessed as cell viability after 72 hrs by MTT assay; type: functional, cell-based; settings: NCI-H1975, 72 h
A549 [13] = test: Inhibition of cell migration of human A549 cells at 0.1 to 1 uM after 24 hrs by scratch wound healing assay; type: functional, cell-based; settings: dose 0.1-1 µM
[14] = target: Hepatocyte growth factor receptor (Homo sapiens, UniProt P08581); test: Inhibition of c-Met (unknown origin) by mobility shift assay
NCI-H1975 [15] = test: Induction of cell cycle arrest in human H1975 cells assessed as number of cells at G1/G0 phase at 1.3 uM after 24 hrs by flow cytometry (reference value: 43.18%); type: functional
NCI-H1975 [16] = test: Induction of cell cycle arrest in human H1975 cells assessed as number of cells at G1/G0 phase at 4 uM after 24 hrs by flow cytometry (reference value: 43.18%); type: functional
NCI-H1975 [17] = test: Induction of cell cycle arrest in human H1975 cells assessed as number of cells at G1/G0 phase at 12 uM after 24 hrs by flow cytometry (reference value: 43.18%); type: functional
NCI-H1975 [18] = test: Induction of cell cycle arrest in human H1975 cells assessed as number of cells at S phase at 12 uM after 24 hrs by flow cytometry (reference value: 25.41%); type: functional
A549 [19] = test: Induction of apoptosis in human A549 cells assessed as chromatin condensation after 48 hrs by AO/EB staining based fluorescent microscopic analysis; type: functional, cell-based; settings: dose 0.1-10 µM, DDE = dose-dependent effect
NCI-H1975 [20] = test: Induction of apoptosis in human H1975 cells assessed as cell shrinkage after 48 hrs by AO/EB staining based fluorescent microscopic analysis; type: functional; settings: dose 0.1-10 µM, DDE = dose-dependent effect
NCI-H1975 [21] = test: Induction of cell cycle arrest in human H1975 cells assessed as number of cells at S phase at 4 uM after 24 hrs by flow cytometry (reference value: 25.41%); type: functional
[22] = tested on: Epidermal growth factor receptor (Homo sapiens), P00533 [L858R,T790M,C797S]; settings: dose 300.0 nM
Chain of Epidermal growth factor receptor (Homo sapiens), P00533 [L858R,T790M,C797S] (P00533 whole entry T790M/C797S/L858R): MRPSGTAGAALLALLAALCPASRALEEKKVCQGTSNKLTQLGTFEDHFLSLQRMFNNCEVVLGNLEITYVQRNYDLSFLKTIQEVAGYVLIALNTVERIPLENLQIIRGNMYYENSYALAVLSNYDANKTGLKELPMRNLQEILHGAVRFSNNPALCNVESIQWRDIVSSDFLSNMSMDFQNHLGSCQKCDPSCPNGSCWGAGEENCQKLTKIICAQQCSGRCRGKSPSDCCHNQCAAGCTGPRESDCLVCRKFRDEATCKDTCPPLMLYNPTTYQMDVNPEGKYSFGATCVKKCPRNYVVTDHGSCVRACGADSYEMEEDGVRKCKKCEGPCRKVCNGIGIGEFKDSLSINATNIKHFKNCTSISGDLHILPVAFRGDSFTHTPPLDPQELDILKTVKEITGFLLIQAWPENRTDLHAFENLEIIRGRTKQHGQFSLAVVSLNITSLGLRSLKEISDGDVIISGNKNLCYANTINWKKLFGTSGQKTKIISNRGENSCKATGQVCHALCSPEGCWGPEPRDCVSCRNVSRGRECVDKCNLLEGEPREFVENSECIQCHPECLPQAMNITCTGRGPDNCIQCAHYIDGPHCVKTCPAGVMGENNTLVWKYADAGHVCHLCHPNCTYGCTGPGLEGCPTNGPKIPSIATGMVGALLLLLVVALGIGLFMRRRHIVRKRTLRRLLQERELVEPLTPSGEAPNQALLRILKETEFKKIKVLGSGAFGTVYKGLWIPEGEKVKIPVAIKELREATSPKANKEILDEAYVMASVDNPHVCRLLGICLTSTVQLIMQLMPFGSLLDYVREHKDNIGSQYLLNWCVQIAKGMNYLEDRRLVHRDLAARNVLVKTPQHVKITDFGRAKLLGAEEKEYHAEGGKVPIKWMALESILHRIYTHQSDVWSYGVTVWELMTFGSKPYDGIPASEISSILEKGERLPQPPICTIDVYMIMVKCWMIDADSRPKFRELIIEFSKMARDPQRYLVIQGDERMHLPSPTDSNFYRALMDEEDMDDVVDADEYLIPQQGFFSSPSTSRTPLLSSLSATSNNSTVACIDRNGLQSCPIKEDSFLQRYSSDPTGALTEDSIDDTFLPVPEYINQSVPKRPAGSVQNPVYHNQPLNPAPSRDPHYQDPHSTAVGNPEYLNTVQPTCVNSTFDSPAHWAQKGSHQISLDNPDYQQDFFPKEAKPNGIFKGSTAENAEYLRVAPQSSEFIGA

IC50 [4]: 29 nM
IC50 [8]: 242 nM
IC50 [9]: 10 nM
IC50 (A549 [11]): 2530 nM
IC50 (NCI-H1975 [12]): 1560 nM
IC50 [14]: > 1000 nM
inhibition [22]: 60.8%
Compound: COc1cc(N(C)CCN(C)C)c(NC(=O)c2ccncn2)cc1Nc1nccc(-c2cn(C)c3ccccc23)n1
inhibition (NCI-H1975 [1]): Active
Activity (NCI-H1975 [2]): 31.18%
Activity (NCI-H1975 [3]): 30.13%
Activity (NCI-H1975 [5]): 22.67%
Activity (NCI-H1975 [6]): Dde
Activity (A549 [7]): Dde
Activity (NCI-H1975 [10]): 31.02%
inhibition (A549 [13]): Active
Activity (NCI-H1975 [15]): 46.15%
Activity (NCI-H1975 [16]): 50.62%
Activity (NCI-H1975 [17]): 57.32%
Activity (NCI-H1975 [18]): 12.55%
Activity (A549 [19]): Dde
Activity (NCI-H1975 [20]): Dde
Activity (NCI-H1975 [21]): 18.36%
